Like-named read-outs stand apart in the source and are kept apart here.
Columns and labels:
HCT116 cells [1] = assay: MTT cell viability assay; format: cell-based, human; details: for IC50: Homo sapiens
Description: HCT116 cells (1 × 10^3 cells/well) were seeded in 96-well plates and cell viability was determined using MTT (Sigma-Aldrich, USA). […] MTT (0.5 mg/ml) was added to the cells after 48 h of treatment and incubated for 3 h in dark at 37 °C. The generated formazan complexes were dissolved in DMSO and the absorbance were measured at 550 nm using a spectrophotometer (Infinite® 200 PRO, TECAN, Switzerland) (Bhowmik et al. [2013]).

[2] = Hepatic oxidative parameters and liver/kidney histopathology, 10 days treatment; format: in vivo, BALB/c mice; details: 5 mg/kg b.w i.v.; for kidney histopathology / liver histopathology: H&E
Description: (§1) To determine the toxicity of only Orientin treatment in various doses, the mice were divided into five groups. Each group contained six animals (n = 6). Each animal of the vehicle control group (VC) was left untreated, while, mice of other four groups were administered Orientin intravenously with 1 mg/kg b.w, 3 mg/kg b.w, 5 mg/kg b.w and 10 mg/kg b.w dosage respectively for 28 days. […] All the treatments were continued for 10 days. On day 11 all the mice were sacrificed and different parameters were studied.
Values of all the parameters were calculated with respect to the amount of total protein present in liver homogenates.
Various organs and solid tumors collected after sacrificing the mice were embedded into paraffin after 10% neutral buffered formalin fixation. 4 μm sections were prepared and used for histopathological study.

HCT116 cells [3] = assay: Annexin V/PI flow cytometry (apoptosis); format: cell-based, human; details: HCT116, 48 h, IC50 doses; untreated 7.9%
Description: Percentage of apoptotic cells were detected by Annexin V and propidium Iodide (PI) staining by flow cytometry analysis according to the protocols provided by manufacturer of the kit (Invitrogen, USA). In brief, cells were washed with PBS, suspended in binding buffer followed by incubation with Annexin V and PI. Then, the cells were analysed by using a flow cytometer (BD LSRFortessaTM X-20).

[4] = system: CT26 cell induced solid tumor; assay: CT26 syngeneic colorectal tumor model; format: in vivo, BALB/c mice; details: for tumor volume: 10 days, Orientin 5 mg/kg b.w/day i.v., 5FU 5 mg/kg b.w i.v. alternate day; for tumor volume / survival (Kaplan Meier): vs control; for tumor tissue histopathology: H&E; for number of blood vessels in tumor tissue: H&E sections; for CD44+/CD133+ cells in tumor tissue / HIF1α and VEGFA expression in tumor: immunofluorescence; for survival (Kaplan Meier): tumor bearing mice
Description: To set up therapeutic in vivo model, CT26 cells (2 × 10^6 cells/animal), syngeneic to BALB/c mice were injected subcutaneously to the right hind limb of the each animal. Palpable tumor was formed after 10 days. […] Six mice from each group were sacrificed on day 11 and the others were left for performing survivability assay using Kaplan–Meier method (Hajra et al. [2018a]).
Various organs and solid tumors collected after sacrificing the mice were embedded into paraffin after 10% neutral buffered formalin fixation. 4 μm sections were prepared and used for histopathological study. Standard Hematoxylin and Eosin (H&E) staining protocol was used and sections were visualized under light microscope (DM 1000, Leica, Germany) (Hajra et al. [2018a]).
Immunofluorescence assay was carried out as described previously (Shimizu et al. [2023]). Tissue sections were blocked with 3% BSA and incubated with primary antibodies like HIF1α, VEGFA, CD44 (Thermo Fisher Scientific, USA) and CD133 (Abcam, USA) at room temperature for 2 h. Alexa fluor 488 and Alexa fluor 594 tagged secondary (Thermo Fisher Scientific, USA) antibodies were added to all the tissue sections for 1 h followed by DAPI staining and images were visualized under fluorescence microscope (Olympus BX53, Japan).

[5] = Serum cytotoxicity markers (ALT, AST, ALP, BUN, creatinine); format: in vivo; details: BALB/c mice, 10 days, mean ± SD, n = 6
Description: as §1
Blood samples were collected from the retro-orbital venous plexus of mice for quantitative analysis of alanine aminotransferase (ALT), aspartate aminotransferase (AST), alkaline phosphatase (ALP), creatinine and blood urea nitrogen (BUN) in serum following kit protocol (Sigma Aldrich, USA). Optical densities were determined by using a spectrophotometer (Infinite® 200 PRO, TECAN, Switzerland).

OCT4, SOX2 and NANOG = assay: Real time PCR of stemness factors in sorted CD44+/CD133+ cells; format: cell-based, human; details: 24 h
Excerpt: CD44^+/CD133^+ cells were isolated using MACS LS column (Miltenyi Biotec, USA) after leveled with CD44 and CD133 antibody conjugated with microbeads (Miltenyi Biotec, USA) by following manufacture’s protocol and subjected to further analysis. Cells expressing both CD44 and CD133 were isolated using magnetic cell sorter (MACS) (Guerriero et al. [2017]).
Total RNA was extracted from sorted CD44^+/CD133^+ cell population using TRIZOL (Thermo Fisher Scientific, USA) as described in manufacturer’s protocol. cDNAs were synthesized from RNA templates by using cDNA isolation kit (Bio-Rad, USA) and target genes like OCT4, SOX2 and NANOG were amplified by using real time PCR kit (Bio-Rad, USA) following manufacturer’s instructions by Roche LightCycler® 96 System (Switzerland). Glyceraldehyde-3-phosphate dehydrogenase (GAPDH) gene expression was used to normalize the expression of the target genes.

[6] = system: CD44+/CD133+ CSC population in CES derived from HCT116 cells; assay: Flow cytometry of CD44+/CD133+ cells in tumorospheres; format: cell-based, human; details: 24 h, 26 µM Orientin, 13 µM 5FU, 14 µM Orientin + 7 µM 5FU, untreated 18.4%
Description: HCT116 CRC cells were grown in ultra-low attachment plate in 3dGRO™ Spheroid Medium (Sigma-Aldrich, USA) for 7 days. Spheroids enriched with CSCs were considered as CSC enriched spheres (CESs) or commonly referred as tumorospheres. After 7 days, tumorospheres were subjected to different treatments for 24 h, as per experimental protocol. Media of tumorospheres of all the treatment groups were collected, centrifuged to remove the cell debris and suspended spheres, supernatants were collected and vacuum concentrated. These supernatants were referred as conditioned medium (CM) and were stored at − 20 °C until use.
Percentages of CD44^+/CD133^+ cell population were determined within tumorospheres and HIF1α positive cells were determined within the CD44^+/CD133^+ cell population using a flow cytometer (BD LSRFortessa™ X-20) and analyzed by BD FACSDiva™ software.

Compound	reduction of IC50 in combination compared to individual treatment (HCT116 cells [1]; HCT116, MTT, 48 h)	kidney histopathology [2]	liver histopathology [2]	percentage of apoptotic cells (HCT116 cells [3]) [%]	tumor volume [4]	tumor tissue histopathology [4]	number of blood vessels in tumor tissue [4]	CD44+/CD133+ cells in tumor tissue [4]	HIF1α and VEGFA expression in tumor [4]	survival (Kaplan Meier) [4]	ALP [5] [U/ml]	ALT [5] [U/ml]	AST [5] [U/ml]	BUN [5] [mg/dL]	Creatinine [5] [mg/dL]	mRNA level of stemness maintenance factors (OCT4, NANOG, SOX2) (OCT4, SOX2 and NANOG)	CD44+/CD133+ cell population [6] [%]	further results
O=c1[nH]cc(F)c(=O)[nH]1 [5FU, 5-Fluorouracil, reference compound]	approximately 50%	distorted Bowman’s capsule, glomeruli, blood and cellular infiltration	distorted central vein, necrosis, cellular and blood infiltration	54.5	decrease in the tumor volume	cell numbers were found to be reduced	increasing blood vessels number	increased	increase	increased life span	168.44 ± 4.09	121.70 ± 3.95	219.16 ± 2.83	30.76 ± 0.46	0.73 ± 0.023	increased	22.3	IC50 (HCT116 cells [1]; HCT-116, HCT116, MTT, 48 h, used separately, read-out: IC50): 13 µM; hepatic LPO, ROS and NO [2]: induce; hepatic GSH and activity of GST, GPx, SOD and CAT ([2]; 5FU vs vehicle control, combination vs 5FU): reduced
O=c1cc(-c2ccc(O)c(O)c2)oc2c([C@@H]3O[C@H](CO)[C@@H](O)[C@H](O)[C@H]3O)c(O)cc(O)c12 [Orientin]	approximately 50%	did not induce any toxicity	remained normal	49.3	decrease in the tumor volume	lost their compactness	reduced	reduction	decreased	increased life span	94.23 ± 2.10	49.08 ± 1.99	134.7 ± 2.00	21.48 ± 0.53	0.49 ± 0.020	decreased	13.5	IC50 (HCT116 cells [1]; HCT-116, 48 h): 26 µM

From publication PMC11881437 (Molecular Medicine, 2025)
